Assay type in all cases: functional, cell-based
Experiment [1] concerns CCRF-HSB-2. Put plainly: Inhibitory concentration against human T-cell line CCRF-HSB-2 for cytotoxicity was determined.
Experiment [2] relates to KB. Nature of the experiment: Inhibitory concentration against solid tumor KB cell line for cytotoxicity was determined. The conditions noted are these: Homo sapiens.
Experiment [3] has as its system PC-8. Nature of the experiment: Inhibitory concentration against lung adenocarcinoma PC-8 cell line for cytotoxicity was determined. As to conditions: Homo sapiens.
The subject of experiment [4] is A-375. Nature of the experiment: Inhibitory concentration against melanoma A-375 cell line for cytotoxicity was determined. The conditions noted are these: Homo sapiens.
Experiment [5] concerns KATO III stomach cancer cell line. Put plainly: Inhibitory concentration against stomach adenocarcinoma KATO-III cell line for cytotoxicity was determined. The conditions noted are these: Homo sapiens.
For experiment [6], the system named is COLO 320DM. Put plainly: Inhibitory concentration against colon adenocarcinoma COLO 320DM cell line for cytotoxicity was determined. As to conditions: Homo sapiens.

Molecules are shown by their SMILES. ≈ marks a conversion by molar mass, not a printed value.

With `Nc1ccn([C@@H]2O[C@H](CO)C(O)C2CF)c(=O)n1` (single isomer, unassigned), the 50% inhibitory concentration (IC50) was found to be 0.03 µg/mL (≈ 0.116 µM) in experiment [1]; 4.47 µg/mL (≈ 17.2 µM) in experiment [2]; 26 µg/mL (≈ 100 µM) in experiment [3]; 1.6 µg/mL (≈ 6.17 µM) in experiment [4]; 11 µg/mL (≈ 42.4 µM) in experiment [5]; 1.6 µg/mL (≈ 6.17 µM) in experiment [6].

The values are drawn from ChEMBL document CHEMBL1150523, “Synthesis of 1-(2-Deoxy-2-C-fluoromethyl--D-arabinofuranosyl)cytosine as a potential antineoplastic agent” (Bioorg Med Chem Lett, 1994).
